Series [1] is described as follows: in vivo. The settings on record: marmoset, po, 3 mg/kg.
The species named for another series is Callithrix jacchus. The class given is functional, Plasma.
The target in series [2] is T1, Renin (Callithrix jacchus, UniProt Q9TSZ1).
T1 sequence (Q9TSZ1 whole entry): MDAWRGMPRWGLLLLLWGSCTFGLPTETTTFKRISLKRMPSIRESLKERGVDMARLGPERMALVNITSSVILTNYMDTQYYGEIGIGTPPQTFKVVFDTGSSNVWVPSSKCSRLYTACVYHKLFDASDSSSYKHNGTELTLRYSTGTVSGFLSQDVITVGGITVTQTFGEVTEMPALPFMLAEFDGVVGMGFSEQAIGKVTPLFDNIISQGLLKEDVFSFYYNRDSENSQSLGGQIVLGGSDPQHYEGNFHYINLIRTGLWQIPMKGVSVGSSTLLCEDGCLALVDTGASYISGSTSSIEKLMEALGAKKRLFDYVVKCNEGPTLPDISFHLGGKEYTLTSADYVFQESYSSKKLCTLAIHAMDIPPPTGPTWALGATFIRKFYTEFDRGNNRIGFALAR
The class given is cell-free, Plasma.

In series [3] the target is T2, Renin (Homo sapiens, UniProt P00797).
T2 sequence (P00797 whole entry): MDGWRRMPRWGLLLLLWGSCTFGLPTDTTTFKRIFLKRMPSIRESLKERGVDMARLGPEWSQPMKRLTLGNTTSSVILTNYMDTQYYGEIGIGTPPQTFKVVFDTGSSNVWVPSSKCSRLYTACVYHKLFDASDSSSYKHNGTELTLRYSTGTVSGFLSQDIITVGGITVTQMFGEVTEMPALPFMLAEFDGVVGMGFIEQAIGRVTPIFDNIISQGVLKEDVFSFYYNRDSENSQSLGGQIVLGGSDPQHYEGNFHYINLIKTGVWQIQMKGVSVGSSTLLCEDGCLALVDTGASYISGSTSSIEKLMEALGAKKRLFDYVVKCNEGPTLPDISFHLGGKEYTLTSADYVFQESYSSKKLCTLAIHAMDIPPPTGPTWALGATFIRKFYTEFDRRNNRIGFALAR

Series [4] addresses T2, Renin. The source holds these as a separate data set.
A short description of series [5]: physchem. The settings on record: octanol/water, pH 7.4.
A short description of series [6]: physchem.
Series [7] in a line: physchem. Particulars: water.
A further series concerns the target Pepsin A (Homo sapiens, UniProt P0DJD9).
The next series concerns the target Cathepsin D (Homo sapiens, UniProt P07339).
For a further series, the target named is T3, Cathepsin E (Homo sapiens, UniProt P14091).
T3 sequence (P14091 whole entry): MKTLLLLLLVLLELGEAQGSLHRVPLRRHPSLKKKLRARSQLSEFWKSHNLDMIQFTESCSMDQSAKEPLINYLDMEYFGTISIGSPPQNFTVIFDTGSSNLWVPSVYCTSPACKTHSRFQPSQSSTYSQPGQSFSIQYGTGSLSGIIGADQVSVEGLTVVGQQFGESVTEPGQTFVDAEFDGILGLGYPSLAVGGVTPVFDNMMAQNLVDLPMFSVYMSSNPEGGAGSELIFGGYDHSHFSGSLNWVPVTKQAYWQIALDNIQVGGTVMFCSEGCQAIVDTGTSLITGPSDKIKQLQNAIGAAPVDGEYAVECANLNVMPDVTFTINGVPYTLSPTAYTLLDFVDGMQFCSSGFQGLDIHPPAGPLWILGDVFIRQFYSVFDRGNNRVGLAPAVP

The next series deals with Beta-secretase 1 (Homo sapiens, UniProt P56817).
The nature of series [8]: in vivo. Particulars: dog, po.
Series [9] in a line: in vivo. Particulars: rat, po.
Series [10] in a line: in vivo. The settings on record: marmoset.
Series [11] can be described thus: physchem. The settings on record: octanol/water, pH 6.8.
Series [12] in a line: physchem. This is another data set of the same source.
The nature of series [13]: physchem. The settings on record: buffer, pH 7.4.

Where only a bound is given, the exact number is not on record here.

Chain of Beta-secretase 1 (P56817 whole entry): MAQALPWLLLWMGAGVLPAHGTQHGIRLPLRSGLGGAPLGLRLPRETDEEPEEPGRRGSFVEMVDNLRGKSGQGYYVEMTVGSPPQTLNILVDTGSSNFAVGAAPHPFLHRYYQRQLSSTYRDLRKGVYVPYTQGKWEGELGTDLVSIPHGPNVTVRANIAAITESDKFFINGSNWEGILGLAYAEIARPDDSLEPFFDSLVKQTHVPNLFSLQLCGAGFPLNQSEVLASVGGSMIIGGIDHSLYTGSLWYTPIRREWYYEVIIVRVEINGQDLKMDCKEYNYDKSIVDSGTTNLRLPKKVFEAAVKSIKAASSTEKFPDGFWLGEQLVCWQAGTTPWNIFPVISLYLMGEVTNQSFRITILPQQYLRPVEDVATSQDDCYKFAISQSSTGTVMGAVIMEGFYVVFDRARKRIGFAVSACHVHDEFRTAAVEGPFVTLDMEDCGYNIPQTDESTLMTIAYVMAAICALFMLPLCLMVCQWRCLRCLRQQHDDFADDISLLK
Chain of Pepsin A (P0DJD9 whole entry): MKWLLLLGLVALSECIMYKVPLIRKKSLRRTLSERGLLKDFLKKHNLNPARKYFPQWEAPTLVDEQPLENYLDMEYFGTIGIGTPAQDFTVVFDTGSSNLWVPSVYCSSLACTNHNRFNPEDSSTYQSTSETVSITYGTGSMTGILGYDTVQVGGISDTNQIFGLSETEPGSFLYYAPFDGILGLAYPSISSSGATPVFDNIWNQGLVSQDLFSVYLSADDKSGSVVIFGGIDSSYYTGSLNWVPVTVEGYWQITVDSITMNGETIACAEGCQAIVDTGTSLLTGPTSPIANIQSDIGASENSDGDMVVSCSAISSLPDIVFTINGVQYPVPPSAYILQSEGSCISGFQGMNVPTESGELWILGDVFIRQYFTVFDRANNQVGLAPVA
Chain of Cathepsin D (P07339 65-162 limits assumed): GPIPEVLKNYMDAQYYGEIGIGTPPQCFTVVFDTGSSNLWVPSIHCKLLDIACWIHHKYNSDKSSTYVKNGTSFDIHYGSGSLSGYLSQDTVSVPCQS
Chain of Cathepsin D (P07339 169-412 limits assumed): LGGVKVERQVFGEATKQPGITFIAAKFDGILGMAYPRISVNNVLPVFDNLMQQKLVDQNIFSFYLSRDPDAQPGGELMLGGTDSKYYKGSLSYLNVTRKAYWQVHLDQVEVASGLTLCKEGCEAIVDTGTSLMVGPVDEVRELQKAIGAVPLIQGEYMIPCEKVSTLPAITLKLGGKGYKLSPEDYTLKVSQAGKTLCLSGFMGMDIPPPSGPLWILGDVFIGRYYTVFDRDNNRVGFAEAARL

As a reminder, the bioavailability is the share of a dose that reaches the circulation, judged against a reference dose that is usually intravenous. A higher bioavailability goes with much systemic uptake. In turn, `COCCCOc1cc(C[C@@H](C[C@H](N)[C@@H](O)C[C@H](C(=O)NCCC(=O)N(C)C)C(C)C)C(C)C)ccc1OC.Cl` returned a bioavailability in the series “in vivo [1]” of 14%.
By Inhibition is commonly meant the relative decrease from the control value, in per cent. A lower Inhibition goes with a weak effect. Turning to `CCCCNC(=O)[C@@H](C[C@H](O)[C@@H](N)C[C@H](Cc1ccc(OC)c(OCCCOC)c1)C(C)C)C(C)C.Cl`, the Inhibition in the series listed under Callithrix jacchus stood at 79%.
The IC50 is the midpoint of a concentration-inhibition curve. Read a high IC50 as a need for much substance. In the case of `COCCCOc1cc(C[C@@H](C[C@H](N)[C@@H](O)C[C@H](C(=O)NCCc2nn[nH]n2)C(C)C)C(C)C)ccc1OC`, the IC50 on Renin [2], at Renin [3] and against Renin [4] was 2 nM each time.
Consider `COCCCOc1cc(C[C@@H](C[C@H](N)[C@@H](O)C[C@H](C(=O)N[C@@H](CO)C(N)=O)C(C)C)C(C)C)ccc1OC`, for which the concentration for half-maximal inhibition (IC50) against Renin [2] was found to be 6 nM; at Renin [3], 2 nM; against Renin [4], 3 nM.
For orientation: logD means lipophilicity at a set pH, counting ionised and neutral species. Broadly, the pKa is the pH at which an ionisable group is half protonated. The low end stands for a stronger acid or weaker base, the high end for a weaker acid or stronger base. Take `COCCCCc1cc(C[C@@H](C[C@H](N)[C@@H](O)C[C@H](C(=O)NCCN2CCOCC2)C(C)C)C(C)C)ccc1OC.Cl`: the figures for the IC50 against Renin [2], against Renin [3] and at Renin [4] were 1 nM, 2 nM and 0.9 nM, respectively. In the series “in vivo [1]”, this compound showed a bioavailability of 30%. In “physchem [5]”, this compound gave a logD of 2.85. The pKa in “physchem [6]” was 6.01.
Regarding `COCCCOc1cc(C[C@@H](C[C@H](N)[C@@H](O)C[C@H](C(=O)NC(C)CN2CCOCC2)C(C)C)C(C)C)ccc1OC` (stereo partly specified), the IC50 on Renin [2] was determined as 9 nM; against Renin [3], 3 nM.
One may read the solubility as the concentration that dissolves in the medium under given conditions. For `COCCCOc1cc(C[C@@H](C[C@H](N)[C@@H](O)C[C@H](C(=O)NC[C@H]2CCC(=O)N2)C(C)C)C(C)C)ccc1OC.Cl`, the half-maximal inhibitory concentration (IC50) on Renin [2] is 2 nM; at Renin [3] it was 2 nM; on Renin [4], 1 nM. The compound further showed a log distribution coefficient (logD) in “physchem [5]” of 2.06. In addition, the solubility in “physchem [7]” is greater than 100 mg/mL. The compound further showed a pKa in the series “physchem [6]” of 9.09.
As for `COCCCOc1cc(C[C@@H](C[C@H](N)[C@@H](O)C[C@H](C(=O)NCC(C)(C)N2CCOCC2)C(C)C)C(C)C)ccc1OC`, the figures for the IC50 against Renin [2], at Renin [3] and against Renin [4] were 18 nM, 0.6 nM and 2 nM, respectively.
Consider `CNC(=O)C(C)(C)CNC(=O)[C@@H](C[C@H](O)[C@@H](N)C[C@H](Cc1ccc(OC)c(OCCCOC)c1)C(C)C)C(C)C.Cl`, for which the IC50 on Renin [2] was 2 nM; against Renin [3], 0.4 nM; against Renin [4], 0.7 nM. Further, the bioavailability in the series “in vivo [1]” came out at 25%.
For `CC[C@H](NC(=O)[C@@H](C[C@H](O)[C@@H](N)C[C@H](Cc1ccc(OC)c(OCCCOC)c1)C(C)C)C(C)C)C(N)=O`, the results for the IC50 against Renin [2] and against Renin [3] were 1 nM and 0.8 nM, respectively.
Usually half-life stands for the time needed for the level to fall by half in the phase considered. With `COCCCOc1cc(C[C@@H](C[C@H](N)[C@@H](O)C[C@H](C(=O)NCC(C)(C)C(N)=O)C(C)C)C(C)C)ccc1OC.Cl`, the IC50 on Pepsin A, at Cathepsin D, against Cathepsin E and at Beta-secretase 1 was greater than 10000 nM in each case. In addition, the bioavailability stood at 16% in “in vivo [1]”, 32% in “in vivo [8]” and 2.4% in the series “in vivo [9]”. The compound further gave a half-life in “in vivo [10]” of 8.7 h.
Regarding `COCCCOc1cc(C[C@@H](C[C@H](N)[C@@H](O)C[C@H](C(=O)NC(C)(C)C(N)=O)C(C)C)C(C)C)ccc1OC`, the IC50 came out at 200 nM against Renin [2], 13 nM against Renin [3] and 100 nM against Renin [4].
In the case of `COCCCOc1cc(C[C@@H](C[C@H](N)[C@@H](O)C[C@H](C(=O)NCC(C)(C)C(=O)O)C(C)C)C(C)C)ccc1OC`, the IC50 against Renin [2] was determined as 13 nM; on Renin [3], 3 nM; against Renin [4], 13 nM.
Take `COCCCOc1cc(C[C@@H](C[C@H](N)[C@@H](O)C[C@H](C(=O)NCCN2CCOCC2)C(C)C)C(C)C)ccc1OC`: the IC50 at Renin [2] was 3 nM; against Renin [3] it was 0.4 nM; at Renin [4], 1 nM.
As for `COCCCOc1cc(C[C@@H](C[C@H](N)[C@@H](O)C[C@H](C(=O)NCCC(=O)N(C)C)C(C)C)C(C)C)ccc1OC`, in “physchem [5]”, the logD was 2.48. In “physchem [6]”, this compound registered a pKa of 9.4.
For the compound `COCCCCc1cc(C[C@@H](C[C@H](N)[C@@H](O)C[C@H](C(=O)NCC(C)(C)C(N)=O)C(C)C)C(C)C)ccc1OC.Cl`, the results for the IC50 against Renin [2], at Renin [3] and against Renin [4] were 4 nM, 1 nM and 3 nM, respectively. The same compound returned a bioavailability in “in vivo [1]” of 8%. In “physchem [5]”, the logD was 3.31. In the series “physchem [6]”, this compound had a pKa of 9.44.
Turning to `COCCCOc1cc(C[C@@H](C[C@H](N)[C@@H](O)C[C@H](C(=O)N[C@@H](C)CC(N)=O)C(C)C)C(C)C)ccc1OC`, the results for the IC50 on Renin [2], at Renin [3] and against Renin [4] were 3 nM, 1 nM and 2 nM, respectively.
Consider `COCCCOc1cc(C[C@@H](C[C@H](N)[C@@H](O)C[C@H](C(=O)NC[C@@H]2CCC(=O)N2)C(C)C)C(C)C)ccc1OC.Cl`, for which the IC50 on Renin [2] stood at 3 nM; on Renin [3], 0.6 nM; at Renin [4], 0.9 nM. In the series “in vivo [1]”, this compound gave a bioavailability of 22%.
Take `COCCCOc1cc(C[C@@H](C[C@H](N)[C@@H](O)C[C@H](C(=O)NC(C)(C)CN2CCOCC2)C(C)C)C(C)C)ccc1OC`: the IC50 at Renin [3] was 16 nM; at Renin [4], 27 nM.
In the case of `COCCCOc1cc(C[C@@H](C[C@H](N)[C@@H](O)C[C@H](C(=O)NCC(C)(C)C(N)=O)C(C)C)C(C)C)ccc1OC.COCCCOc1cc(C[C@@H](C[C@H](N)[C@@H](O)C[C@H](C(=O)NCC(C)(C)C(N)=O)C(C)C)C(C)C)ccc1OC.O=C(O)/C=C/C(=O)O` [ALISKIREN FUMARATE], the logD in the series “physchem [5]” worked out at 2.5; in “physchem [11]”, 0.1. Further, the solubility was 0.44 mg/mL in the series “physchem [12]” and greater than 100 mg/mL in the series “physchem [13]”. The pKa in “physchem [6]” stood at 9.2.
Regarding `COCCCOc1cc(C[C@@H](C[C@H](N)[C@@H](O)C[C@H](C(=O)NCCCN2CCOCC2)C(C)C)C(C)C)ccc1OC`, the IC50 at Renin [2], against Renin [3] and on Renin [4] was 3 nM in each case.
Consider `COCCCOc1cc(C[C@@H](C[C@H](N)[C@@H](O)C[C@H](C(=O)N[C@H](C)CC(N)=O)C(C)C)C(C)C)ccc1OC`, for which the results for the IC50 at Renin [2], against Renin [3] and on Renin [4] were 28 nM, 6 nM and 57 nM, respectively.

(Values after ChEMBL document CHEMBL1148801, “Structural modification of the P2' position of 2,7-dialkyl-substituted 5(S)-amino-4(S)-hydroxy-8-phenyl-octanecarboxamides: the discovery of aliskiren, a potent nonpeptide human renin inhibitor active after once daily dosing in marmosets” (J Med Chem, 2007).)
